Here are results for 33 compounds from patent US20250171459A1, “2-METHYL-4',5'-DIHYDROSPIRO[PIPERIDINE-4,7'-THIENO[2,3-C]PYRAN] DERIVATIVES AS INHIBITORS OF APOL1 AND METHODS OF USING SAME” (Vertex Pharmaceuticals Incorporated, priority 2022, published 2025).

This assay has as its target T1, APOL1 (Homo sapiens, UniProt O14791).
T1 sequence (O14791 1-398 S342G/I384M): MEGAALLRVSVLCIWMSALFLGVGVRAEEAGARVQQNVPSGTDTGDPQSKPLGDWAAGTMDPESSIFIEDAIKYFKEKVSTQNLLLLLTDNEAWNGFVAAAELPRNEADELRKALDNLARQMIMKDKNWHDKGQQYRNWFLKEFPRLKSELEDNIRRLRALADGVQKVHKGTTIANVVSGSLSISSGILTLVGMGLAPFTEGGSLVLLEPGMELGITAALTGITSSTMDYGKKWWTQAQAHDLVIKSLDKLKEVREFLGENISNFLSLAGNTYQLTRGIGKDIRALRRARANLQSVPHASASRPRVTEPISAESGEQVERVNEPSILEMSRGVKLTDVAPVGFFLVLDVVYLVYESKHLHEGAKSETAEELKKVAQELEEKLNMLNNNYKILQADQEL
Put plainly: MultiTox-Fluor Multiplex Cytotoxicity Assay in tet-inducible APOL1 T-REx-HEK293 cells (cell rescue, ratio of dead to live cells). The conditions noted are these: tet-inducible transgenic APOL1 T-REx-HEK293 cell lines, 50 ng/mL tet, 24 hours; read-out: IP50 (i.e., IC50 for cell proliferation). The assay is classed as cell-based. In outline: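 T-REx-HEK293 cells with tet-inducible APOL1 were treated with compound (10 μM top, 10-point 3-fold dilution, duplicate) plus 50 ng/mL tetracycline for 24 h at 37° C, in DMEM with 2% tet-free FBS. MultiTox-Fluor protease signals gave a dead/live ratio, normalized to no tet (100% viability) and tet alone (0%).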

`Cc1cc2c(s1)CCO[C@@]21CCN(CC(O)C(N)=O)[C@@H](C)C1` (stereo partly drawn) [Compound 503]: the IC50 lay within 100 to 500 nM.

For `Cc1cc2c(s1)CCO[C@@]21CCN(C2CCCC2O)[C@@H](C)C1` (stereo partly drawn) [Compound 504], the IC50 was in the range of 100 to 500 nM.

As to `Cc1cc2c(s1)CCO[C@@]21CCN(C2CCCC2O)[C@@H](C)C1` (stereo partly drawn) [Compound 505], the IC50 was less than 100 nM.

Regarding `C[C@H]1C[C@@]2(CCN1CCO)OCCc1sc(Cl)cc12` [Compound 506], the IC50 fell in the range of 100 to 500 nM.

For `C[C@H](O)CN1CC[C@]2(C[C@@H]1C)OCCc1sc(Cl)cc12` [Compound 507], the IC50 lay within 100 to 500 nM.

As to `C[C@H]1C[C@@]2(CCN1C[C@H](O)C(N)=O)OCCc1sc(Cl)cc12` [Compound 508, (2S)-3-[(2′S,4R)-2-chloro-2′-methyl-spiro[6,7-dihydrothieno[3,2-c]pyran-4,4′-piperidine]-1′-yl]-2-hydroxy-propanamide], the IC50 fell in the range of 100 to 500 nM.

As to `C[C@H]1C[C@@]2(CCN1C[C@@H](O)C(N)=O)OCCc1sc(Cl)cc12` [Compound 509, (2R)-3-[(2′S,4R)-2-chloro-2′-methyl-spiro[6,7-dihydrothieno[3,2-c]pyran-4,4′-piperidine]-1′-yl]-2-hydroxy-propanamide], the IC50 was 100 to 500 nM.

On to `Cc1cc2c(s1)CCO[C@@]21CCN(Cc2cn(CCS(C)(=O)=O)nn2)[C@@H](C)C1` [Compound 510, (2′S)-2,2′-dimethyl-1′-[[1-(2-methylsulfonylethyl)triazol-4-yl]methyl]spiro[6,7-dihydrothieno[3,2-c]pyran-4,4′-piperidine]], for which the IC50 was less than 100 nM.

In the case of `C[C@H]1C[C@@]2(CCN1Cc1cn(CCS(C)(=O)=O)nn1)OCCc1sc(Cl)cc12` [Compound 511], the IC50 is less than 100 nM.

`Cc1sc2c(c1C)[C@]1(CCN(Cc3cn(CCS(C)(=O)=O)nn3)[C@@H](C)C1)OCC2` [Compound 512]: the IC50 is 100 to 500 nM.

As for `CCCc1cc2c(s1)CCO[C@@]21CCN(Cc2cn(CCS(C)(=O)=O)nn2)[C@@H](C)C1` [Compound 513], the IC50 lay in the range of 100 to 500 nM.

`CC(C)Cc1cc2c(s1)CCO[C@@]21CCN(Cc2cn(CCS(C)(=O)=O)nn2)[C@@H](C)C1` [Compound 514]: the IC50 lay within 100 to 500 nM.

Take `C[C@H]1C[C@@]2(CCN1Cc1cnc(NC(C)(C)CO)nc1)OCCc1sc(Cl)cc12` [Compound 515, 2-[[5-[[(2′S,4R)-2-chloro-2′-methyl-spiro[6,7-dihydrothieno[3,2-c]pyran-4,4′-piperidine]-1′-yl]methyl]pyrimidin-2-yl]amino]-2-methyl-propan-1-ol]: the IC50 is less than 100 nM.

As for `Cc1cc2c(s1)CCO[C@]21CCN(Cc2cnn(CCS(C)(=O)=O)c2)[C@@H](C)C1` [Compound 516, (2′S,4S)-2,2′-dimethyl-1′-[[1-(2-methylsulfonylethyl)pyrazol-4-yl]methyl]spiro[6,7-dihydrothieno[3,2-c]pyran-4,4′-piperidine]], the IC50 was less than 100 nM.

On to `Cc1cc2c(s1)CCO[C@@]21CCN(Cc2cnn(CCS(C)(=O)=O)c2)[C@H](C)C1` [Compound 517], for which the IC50 lay within 100 to 500 nM.

For `C[C@H]1C[C@@]2(CCN1Cc1cnn(CCS(C)(=O)=O)c1)OCCc1sc(Cl)cc12` [Compound 518], the IC50 is less than 100 nM.

With `Cc1sc2c(c1C)[C@]1(CCN(Cc3cnn(C)c3)[C@@H](C)C1)OCC2` [Compound 519, (2′S,4R)-2,2′,3-trimethyl-1′-[(1-methylpyrazol-4-yl)methyl]spiro[6,7-dihydrothieno[3,2-c]pyran-4,4′-piperidine]], the IC50 was less than 100 nM.

As to `CCCc1cc2c(s1)CCO[C@@]21CCN(Cc2cnn(C)c2)[C@@H](C)C1` [Compound 520], the IC50 was less than 100 nM.

Take `CC(C)Cc1cc2c(s1)CCO[C@@]21CCN(Cc2cnn(C)c2)[C@@H](C)C1` [Compound 521]: the IC50 was less than 100 nM.

Turning to `C[C@H]1C[C@@]2(CCN1Cc1cn(CCS(C)(=O)=O)nn1)OCCc1sc(Br)cc12` [Compound 522, (2′S,4R)-2-bromo-2′-methyl-1′-[[1-(2-methylsulfonylethyl)triazol-4-yl]methyl]spiro[6,7-dihydrothieno[3,2-c]pyran-4,4′-piperidine]], the IC50 is less than 100 nM.

On to `C[C@H]1C[C@@]2(CCN1Cc1cnn(CCS(C)(=O)=O)c1)OCCc1sc(CC(F)F)cc12` [Compound 523, (2′S,4R)-2-(2,2-difluoroethyl)-2′-methyl-1′-[[1-(2-methylsulfonylethyl)pyrazol-4-yl]methyl]spiro[6,7-dihydrothieno[3,2-c]pyran-4,4′-piperidine]], for which the IC50 was less than 100 nM.

Regarding `C[C@H]1C[C@@]2(CCN1Cc1cn(CCS(C)(=O)=O)nn1)OCCc1sc(C(F)F)cc12` [Compound 524, (2′S,4R)-2-(difluoromethyl)-2′-methyl-1′-[[1-(2-methylsulfonylethyl)triazol-4-yl]methyl]spiro[6,7-dihydrothieno[3,2-c]pyran-4,4′-piperidine]], the IC50 is less than 100 nM.

Regarding `C[C@H]1C[C@@]2(CCN1Cc1cn(CCS(C)(=O)=O)nn1)OCCc1sc(C(F)(F)F)cc12` [Compound 525, (2′S,4R)-2′-methyl-1′-[[1-(2-methylsulfonylethyl)triazol-4-yl]methyl]-2-(trifluoromethyl)spiro[6,7-dihydrothieno[3,2-c]pyran-4,4′-piperidine]], the IC50 is less than 100 nM.

`CCc1sc2c(c1Br)[C@]1(CCN(Cc3cn(CCS(C)(=O)=O)nn3)[C@@H](C)C1)OCC2` [Compound 526, (2′S,4R)-3-bromo-2-ethyl-2′-methyl-1′-[[1-(2-methylsulfonylethyl)triazol-4-yl]methyl]spiro[6,7-dihydrothieno[3,2-c]pyran-4,4′-piperidine]]: the IC50 is 100 to 500 nM.

Turning to `[2H]c1c(CC)sc2c1[C@]1(CCN(Cc3cn(CCS(C)(=O)=O)nn3)[C@@H](C)C1)OCC2` [Compound 527, (2′S,4R)-3-deuterio-2-ethyl-2′-methyl-1′-[[1-(2-methylsulfonylethyl)triazol-4-yl]methyl]spiro[6,7-dihydrothieno[3,2-c]pyran-4,4′-piperidine]], the IC50 was less than 100 nM.

Take `C[C@H]1CC2(CCN1Cc1cnn(C)c1)OC(CO)Cc1sc(Cl)cc12` (stereo partly drawn) [Compound 530]: the IC50 is less than 100 nM.

In the case of `CC(C)C1Cc2sc(Cl)cc2C2(CCN(Cc3cnn(C)c3)[C@@H](C)C2)O1` (stereo partly drawn) [Compound 532], the IC50 was 100 to 500 nM.

On to `CCC1Cc2sc(Cl)cc2C2(CCN(Cc3cnn(C)c3)[C@@H](C)C2)O1` (stereo partly drawn) [Compound 533], for which the IC50 was in the range of 500 to 1000 nM.

Take `CC1CO[C@@]2(CCN(Cc3cn(CCS(C)(=O)=O)nn3)[C@@H](C)C2)c2cc(C(F)(F)F)sc21` (stereo partly drawn) [Compound 534, (2S,4R)-2,7′-dimethyl-1-((1-(2-(methylsulfonyl)ethyl)-1H-1,2,3-triazol-4-yl)methyl)-2′-(trifluoromethyl)-6′,7′-dihydrospiro[piperidine-4,4′-thieno[3,2-c]pyran]]: the IC50 is less than 100 nM.

Turning to `CCc1cc2c(s1)C(C)COC21CCN(Cc2cn(CCS(C)(=O)=O)nn2)[C@@H](C)C1` (stereo partly drawn) [Compound 535], the IC50 was less than 100 nM.

As for `CC1COC2(CCN(Cc3cn(CCS(C)(=O)=O)nn3)[C@@H](C)C2)c2cc(Cl)sc21` (stereo partly drawn) [Compound 536], the IC50 is less than 100 nM.

As for `CCc1cc2c(s1)C(C)COC21CCN(Cc2cn(CCS(C)(=O)=O)nn2)[C@@H](C)C1` (stereo partly drawn) [Compound 537], the IC50 was less than 100 nM.

As to `CC1COC2(CCN(Cc3cn(CCS(C)(=O)=O)nn3)[C@@H](C)C2)c2cc(Cl)sc21` (stereo partly drawn) [Compound 540], the IC50 is less than 100 nM.
